Assay results: US10500169B2, “Supression of IgE production by compounds derived from traditional chinese medicine” (Sean N. Parker Foundation, priority 2014, dated 2019)

Legend:
U266 cells [1] = assay: IgE production by U266 myeloma cells, ELISA of supernatants; assay type: cell-based, human
Procedure: The IgE producing human U266 myeloma cell line (American Type Culture Collection; Rockville, Md.) has been used for screening pharmaceutical agents for IgE inhibitory effects, and thus this cell line was used to test the potential IgE inhibitory effects of herb extracts and purified compounds. Cells were cultured at 37° C. under 5% CO2 in complete media containing RPMI 1640 medium supplemented, 10% FBS, 1 mM sodium pyruvate, 1×10^-5 M β-ME and 0.5% penicillin-streptomycin. Cells were grown at an initial concentration of 2×10^5 cells/mL. FAHF-2 and B-FAHF-2, individual herb extracts and isolated compounds at different concentrations were added at day 0. Supernatants were harvested after 6 days culture, and IgE levels were determined by using an ELISA Kit (Mabtech Inc, OH). In each experiment, we run duplicate ELISA. In vitro experiments were repeated at least 3 times.
Human U266 myeloma cells (American Type Culture Collection; Rockville, Md.) were cultured in complete medium (RPMI 1640 medium supplemented, 10% FBS, 1 mM sodium pyruvate, 1×10^−5 M β-ME and 0.5% penicillin-streptomycin) at 37° C. under 5% CO2. Cells were grown at an initial concentration of 2×10^5 cells/mL with purpurin and alizarin from Rubia cordifolia L. at different concentrations (0.31, 0.62, 1.25, 2.5, 5 μg/mL), and with arctiin and arctigenin from Arctium lappa L. at different concentrations ([…]) for 6 days. The supernatants were harvested on day 6 for total IgE analysis using ELISA.

IL-10 = assay: RT-PCR gene expression in stimulated PBMCs: IL-10; assay type: cell-based, human; conditions: 10 μg/mL
Procedure: (§1) Quantitative real time PCR was used to detect the epsilon germline transcription. Human PBMC cells (1.5×10^6 cells/mL) were co-incubated with DMF-C1 compound (10 μg/mL) at 37° C. under 5% CO2 for 4 days. Cells were then harvested and total RNA was isolated using Trizol reagent (Gibco BRL, Rockville, Md.) following the manufacturer's instructions. The RNA concentrations were then quantified by triplicate optical density (OD) readings (Bio-Rad SmartSpect 3000; Bio-Rad, Hercules, Calif.). The reverse transcription was performed to get the cDNA using ImProm-II™ Reverse Transcriptase (Promega Corporation, Madison, Wis.) as described by the manufacturer's instructions. The RT-PCR amplification was performed using Maxima™ SYBR Green qPCR Master Mix (2×) kit (Fisher Scientific, Pittsburgh, Pa.) with epsilon germline primers or GAPDH primers. The primer sequences were listed as εGLT forward: 5′-[…]-3′; εGLT reverse: 5′-[…]-3′; GAPDH-forward: 5′-[…]-3′; GAPDH-reverse: 5′-[…]-3′; STAT3-forward: 5′-[…]-3′; STAT3-reverse: 5′-[…]-3′; T-bet-forward: 5′-[…]-3′; T-bet-reverse: 5′-[…]-3′; IFN-γ-forward: 5′-[…]-3′; IFN-γ-reverse: 5′-[…]-3′; IL-10-forward: 5′-[…]-3′; IL-10-reverse: 5′-[…]-3′. IL-5-forward. 5′-[…] TGCA-3′; IL-5-reverse: 5′-[…]-3′. All primers were synthesized by Sigma-Aldrich Corporation (St. Louis, Mo.).

εGLT = assay: RT-PCR of epsilon germline transcripts in PBMCs; assay type: cell-based, human; conditions: 10 μg/mL, 4 days, vs untreated cultures
Procedure: as §1

IL-5 = assay: RT-PCR gene expression in stimulated PBMCs: IL-5; assay type: cell-based, human; conditions: 10 μg/mL
Procedure: as §1

U266 cells [2] = assay: Cell viability of U266 cells, trypan blue exclusion; assay type: cell-based, human; conditions: at the concentrations tested
Procedure: Cell viability was evaluated using a trypan blue exclusion as previously described. Briefly, a 10 μl of cells suspension from each culture was mixed with equal volume of trypan blue dye. The mixture was loaded into a hemocytometer and cells were counted under a microscope. The percentage of viable cells was calculated as follows: Viable cells (%)=(total number of viable cells)/(total number of cells)×100.

T-bet = assay: RT-PCR gene expression in stimulated PBMCs: T-bet; assay type: cell-based, human; conditions: 10 μg/mL
Procedure: as §1

IFN-γ = assay: RT-PCR gene expression in stimulated PBMCs: IFN-γ; assay type: cell-based, human; conditions: 10 μg/mL
Procedure: as §1

B cells in Human PBMCs = assay: Apoptosis by flow cytometry, annexin V staining of CD19 B cells in PBMCs; assay type: cell-based; conditions: 10 μg/ml, 2 days incubation
CACO-2 cells = assay: Berberine uptake by Caco-2 cells, LC-MS; assay type: in vitro ADME; conditions: 50 μg/mL berberine, 1 hour
Procedure: Experiments were performed on 24 well plates for berberine uptake assay. CACO-2 cells were seeded in each well at the concentration of 1×10^5 cells/well. Cells were then allowed to grow to confluence and differentiation for 2 weeks in culture medium (DMEM+10% FBS, high glucose and sodium pyruvate and supplemented with 1% Essential Amino Acids). On the experiment day, cells were washed three times with pre-warmed HBSS and incubated with 1 ml warm HBSS for 30 minutes.
After conditioning with HBSS, cells were incubated at 37° C. with 50 μg/mL berberine with or without 250 μg/mL of nine different herbal medicines, fruits of Prunus mume (P. mume), skin of the fruits of Zanthoxylum schinifolium (Z. schinifolium), roots of Angelica sinensis (A. sinensis), rhizome of Zingiber officinalis (Z. officinalis), twigs of Cinnamomum cassia (C. cassia), bark of Phellodendron chinensis (P. chinensis), rhizome of Coptis chinensis (C. chinensis), roots of Panax ginseng (P. ginseng) and fruiting body of Ganoderma lucidum (G. lucidum). Control wells received 0, 50, 100 and 200 μg of berberine alone.
After 1 hour, cells were washed 3 times with ice-cold HBSS and scraped in 500 μl of ice cold HBSS and centrifuged. […] 75 μL of each sample was analyzed for its berberine concentration by using LC-MS. […]
All samples were analyzed using waters LC-MS system (Waters corp. MA) for berberine detection. […]

Foxp3 = assay: RT-PCR gene expression in stimulated PBMCs: Foxp3; assay type: cell-based, human; conditions: 10 μg/mL
Procedure: as §1

COc1ccc2cc3[n+](cc2c1OC)CCc1cc2c(cc1-3)OCO2 [berberine]
inhibition at 20 µg/mL (U266 cells [1]; Homo sapiens, U-266, 144 h, 20 μg/mL, 6 days): 94.6%
IC50 (U266 cells [1]; Homo sapiens, U-266, 144 h, 6 days culture, read-out: IC50 of inhibition of IgE production by U266 cells): 3.95 µg/mL
effect on IgE production by U266 cells (in words) (U266 cells [1]; different concentrations, 6 days): inhibited IgE production in a dose-dependent manner
mRNA level of IL-10 (IL-10): trend of increase
relative mRNA expression of εGLT (εGLT): significantly inhibited
mRNA level of IL-5 (IL-5): significantly decreased
cell viability of U266 cells (U266 cells [2]): no toxicity
mRNA expression of T-bet (T-bet): significantly increased
mRNA level of IFN-γ (IFN-γ): trend of increase
annexin V stained B cells (B cells in Human PBMCs): about 16%
Concentration of berberine in Cacao-2 cells, berberine standard alone (CACO-2 cells): 2.95 µg/mL
mRNA level of Foxp3 (Foxp3): trend of increase
